Earlier results on four compounds are cited in paper PMC7449217, “The FDA-Approved Drug Nelfinavir Inhibits Lytic Cell-Free but Not Cell-Associated Nonlytic Transmission of Human Adenovirus” (Antimicrobial Agents and Chemotherapy, 2020).

For series [1], the system named is HAdV-C2-dE3B-GFP. Details: method as in earlier work. The following applies: A549, 1.25 μM compound, normalized to neg. ctr., cited from earlier work.
Series [2] concerns A549 cells. Particulars: cited from earlier work.

Read-outs that look alike come from different tables or passages of the source.

For the compound `Nc1c2ccccc2nc2ccccc12` [Aminacrine], in series [1] (analysis EPFL), the “Normalized mean read-outs: Infected nuclei” value is recorded as 0.60, the “Normalized mean read-outs: Infection index” value is recorded as 0.42, the “Normalized mean read-outs: Nuclei” value was 1.42 and the “Normalized mean read-outs: Plaques” value is reported as 0.67. For the same compound, in series [1] (analysis EPFL), the “Normalized mean read-outs: Virus intensity” value is reported as 0.51 AU. Besides, in series [1] (analysis UZH), the “Normalized mean read-outs: Infected nuclei” value is on record as 0.53, the “Normalized mean read-outs: Infection index” value is 0.62, the “Normalized mean read-outs: Nuclei” value is 0.87 and the “Normalized mean read-outs: Plaques” value is reported as 0.75. In addition, the “Normalized mean read-outs: Virus intensity” value in series [1] (analysis UZH) is reported as 0.50 AU. The Toxic result in series [2] is “no”.
In the case of `Cc1cc(N)c2ccccc2[n+]1CCCCCCCCCC[n+]1c(C)cc(N)c2ccccc21` [Dequalinium dichloride], in series [1] (analysis EPFL), the “Normalized mean read-outs: Infected nuclei” value is recorded as 0.33, the “Normalized mean read-outs: Infection index” value is reported as 0.46, the “Normalized mean read-outs: Nuclei” value was 0.71 and the “Normalized mean read-outs: Plaques” value is 0.44. For the same compound, the “Normalized mean read-outs: Virus intensity” value in series [1] (analysis EPFL) is given as 0.38 AU. Also, in series [1] (analysis UZH), the “Normalized mean read-outs: Infected nuclei” value is reported as 0.49, the “Normalized mean read-outs: Infection index” value is 0.62, the “Normalized mean read-outs: Nuclei” value is 0.79 and the “Normalized mean read-outs: Plaques” value is 0.51. The “Normalized mean read-outs: Virus intensity” value in series [1] (analysis UZH) is recorded as 0.37 AU. Also, the Toxic entry in series [2] is on record as “yes”.
Consider `CCCCCCCCCCCCCCCC[N+](C)(C)CCN(Cc1ccc(OC)cc1)c1ncccn1` [Thonzonium bromide], for which, in series [1] (analysis EPFL), the “Normalized mean read-outs: Infected nuclei” value is on record as 0.45, the “Normalized mean read-outs: Infection index” value is 0.56, the “Normalized mean read-outs: Nuclei” value is given as 0.81 and the “Normalized mean read-outs: Plaques” value was 0.56. Further, the “Normalized mean read-outs: Virus intensity” value in series [1] (analysis EPFL) is 0.50 AU. In addition, in series [1] (analysis UZH), the “Normalized mean read-outs: Infected nuclei” value is listed as 0.54, the “Normalized mean read-outs: Infection index” value was 0.63, the “Normalized mean read-outs: Nuclei” value is listed as 0.84 and the “Normalized mean read-outs: Plaques” value is listed as 0.54. Also, the “Normalized mean read-outs: Virus intensity” value in series [1] (analysis UZH) is 0.49 AU.
Turning to `Cc1cn([C@H]2C[C@H](F)[C@@H](CO)O2)c(=O)[nH]c1=O` [3'-deoxy-3'-fluorothymidine], in series [1] (analysis EPFL), the “Normalized mean read-outs: Infected nuclei” value is 0.12, the “Normalized mean read-outs: Infection index” value is on record as 0.17, the “Normalized mean read-outs: Nuclei” value is listed as 0.70 and the “Normalized mean read-outs: Plaques” value is given as 0.00148. The “Normalized mean read-outs: Virus intensity” value in series [1] (analysis EPFL) is on record as 0.32 AU. In addition, in series [1] (analysis UZH), the “Normalized mean read-outs: Infected nuclei” value is given as 0.13, the “Normalized mean read-outs: Infection index” value is recorded as 0.15, the “Normalized mean read-outs: Nuclei” value is 0.83 and the “Normalized mean read-outs: Plaques” value is 0.00429. Further, in series [1] (analysis UZH), the “Normalized mean read-outs: Virus intensity” value is given as 0.30 AU. For the same compound, in series [2], the Toxic entry is reported as “no”.
